{
  "source": "patent US8673976B2",
  "about": "“Medicament for prophylactic and/or therapeutic treatment of hepatic steatosis or non-alcoholic steatohepatitis” (Kowa Company, Ltd., priority 2007, dated 2014)",
  "key": {"mice": {"test_system": "mice", "details": "literature; cited from earlier work"}, "C57BL/6N mice": {"test_system": "C57BL/6N mice", "experiment": "Evaluation of NIK-333 and ATRA for toxicity in mice (Example 2)", "assay_type": "in vivo, mouse", "details": "oral once per day for 2 weeks, versus soybean oil control", "description": "7-Week old C57BL/6N mice (Charles River Japan) were given with MK-333 or ATRA once per day for 2 weeks by forcible continuous oral administration. After completion of the test, S-TG concentrations and testis weights of individual mice were measured. To the control group, soybean oil was administered."}, "rats": {"test_system": "rats", "details": "literature; cited from earlier work"}, "[1]": {"test_system": "SD male rats on high fat diet (HFD32)", "experiment": "Action of NIK-333 for decreasing hepatic lipid amount in high fat diet rats (Example 1)", "assay_type": "in vivo, rat", "details": "oral once a day for 8 weeks, serum", "from_the_text": "For the experiment, 6-week old SD male rats (Charles River Japan) were used. HFD32 (Clea Japan) was used for the high fat diet group, and CE-2 (Clea Japan) was used for the normal control group. The feeding was restricted to 25±3 g for both of the groups. Administration of NIK-333 was started at the same time as the start of the loading of the high fat diet, and the drug was given once a day for 8 weeks by forcible continuous oral administration. After completion of the test, each liver was extracted, and triglyceride (H-TG) amount and cholesterol (H-T-chol) amount in the liver were measured. Hematoxylin-eosin (H.E.) and Oil Red O (O.R.) staining samples were prepared from the extracted liver, and histopathological examination was performed. Degree of fatty degeneration of the liver was graded into five categories on the basis of the examination of the H.E. staining sample, and scores were assigned. Further, from the O.R. staining sample, O.R. positive area in the liver sample area was calculated by using an image analyzer. Furthermore, triglyceride (S-TG), total cholesterol (S-T-chol), alanine aminotransferase (S-ALT), and aspartate aminotransferase (S-AST) levels in serum were measured."}, "recurrence of hepatoma": {"test_system": "recurrence of hepatoma", "details": "clinical, during the administration; cited from earlier work"}},
  "data": [
    {"smiles": "CC1=C(/C=C/C(C)=C/C=C/C(C)=C/C(=O)O)C(C)(C)CCC1", "note": "[ATRA, all-trans-retinoic acid]", "values": [
      {"measurement": "testis weight", "setting": "mice", "result": "decreased testis weight"},
      {"measurement": "S-TG concentration (FIG. 5)", "setting": "C57BL/6N mice", "result": "increases the S-TG concentration"},
      {"measurement": "testis weight (FIG. 6)", "setting": "C57BL/6N mice", "result": "markedly decreases testis weight"},
      {"measurement": "testis weight", "setting": "rats", "result": "decreased testis weight"}
    ]},
    {"smiles": "CC(C)=CCC/C(C)=C/CC/C(C)=C/C=C/C(C)=C/C(=O)O", "note": "[NIK-333, (2E,4E,6E,10E)-3,7,11,15-tetramethyl-2,4,6,10,14-hexadecapentaenoic acid]", "values": [
      {"measurement": "lipid concentration in blood (S-TG, S-T-chol; FIG. 3)", "setting": "[1]", "result": "without affecting lipid concentration in blood"},
      {"measurement": "S-TG concentration (FIG. 5)", "setting": "C57BL/6N mice", "result": "does not affect the concentration"},
      {"measurement": "testis weight (FIG. 6)", "setting": "C57BL/6N mice", "result": "does not affect the weight"},
      {"measurement": "liver function failure or other adverse effects caused by retinoids", "setting": "recurrence of hepatoma", "result": "not substantially observed"}
    ]}
  ]
}
